# Test results from patent US7026135B2, “Biotin-peg-substrate for a lipase assay” (Amersham Biosciences UK Limited, priority 2000, dated 2006).
# Assays:
# Format in all cases: biochemical
# lipase [1] = experiment: lipase assay, 96-well SPA format, 'on bead'; conditions: YSi beads, 5 nM lipase, room temperature, 60 minutes, read-out: IC50 inhibition of lipase activity
# Method: 96-well SPA format. Using an ‘on bead’ assay format, 180 nM lipase substrate (i.e. HSL substrate prepared by the method described in Example 1) was added to streptavidin coated yttrium silicate (YSi) beads (Amersham Pharmacia Biotech) at 5 mg/ml and 10% (v/v) Triton™ X-100 in the ratio of 1:3:2. Triton X-100 was added to prevent non-specific binding of the tritiated product to beads. Assays contained 20 μl substrate precoated SPA beads (6 nM lipase substrate, 50 μg beads, 0.67% (v/v) Triton X-100), 5 nM lipase and assay buffer (50 mM Hepes, pH 7.5, 1 mM dithioerythritol (DTE) and 0.001% (v/v) C13E12) in a volume of 100 μl. In ‘no enzyme’ controls, approximately 15000 SPA cpm were obtained. After incubation for 60 minutes at room temperature with agitation, assays were stopped by the addition of 100 μl 0.1M sodium citrate/citric acid, pH 4.0 and counted on a TopCount™ microplate scintillation counter (Packard Instruments Co., Meriden, Conn., USA).
# Development of a lipase assay using a 96-well SPA assay format. Enzyme titrations were set up using ‘on’ and ‘off’ bead assay formats. In the ‘off’ bead format, the lipase substrate was not precoated onto SPA beads; instead the beads were added at the same time as the stop solution. […] It is thought that the binding of the substrate to the bead surface produced an artificial membrane environment necessary for optimal enzyme activity (FIG. 2). […]
# lipase [2] = experiment: lipase assay, 384-well SPA format (YSi SPA beads); conditions: 30 nM lipase, room temperature, 60 minutes, read-out: IC50 inhibition of lipase activity
# Method: (§1) 384-well SPA and LEADseeker formats. 180 nM lipase substrate was added to streptavidin coated YSi beads at 10 mg/ml and 10% (v/v) Triton™ X-100 in the ratio of 2:3:1. Assays contained […] substrate precoated streptavidin YSi SPA beads or streptavidin yttrium oxide (YOx) LEADseeker beads (Amersham Pharmacia Biotech) (24 nM lipase substrate, 50 μg beads, 0.67% (v/v) Triton X-100), 30 nM lipase and assay buffer in a volume of 25 μl. In ‘no enzyme’ controls, approximately 6000 SPA cpm and 600 IOD's (Integrated Optical Density) were obtained. After incubation for 60 minutes at room temperature with agitation, assays were stopped by the addition of 25 μl 0.1M sodium citrate/citric acid, pH 4.0 and counted on either on a TopCount microplate scintillation counter (Packard Instruments Co., Meriden, Conn., USA) or imaged on LEADseeker (Amersham Pharmacia Biotech).
# (§2) Miniaturization of the lipase assay to 384-well format using SPA and LEADseeker. Using a reduced assay volume an enzyme titration was performed with YSi SPA beads and YOx LEADseeker beads (FIG. 5). Different profiles were obtained using the two assay formats and this may be a result of how the substrate is presented on the surface of the two bead types.
# (§3) 30 nM lipase was used and assays were incubated at room temperature for 60 minutes.
# lipase [3] = experiment: lipase assay, 384-well LEADseeker format (YOx LEADseeker beads); conditions: 30 nM lipase, room temperature, 60 minutes, read-out: IC50 inhibition of lipase activity
# Method: as §1, §2, §3
compound,measurement,setting,value
CC[C@@H](C)[C@@H](O)[C@H](C)C(=O)[C@H](C)/C=C(\C)C[C@H](C)[C@@H]1OC(=O)[C@H]1CC [Ebelactone B],IC50,lipase [1],27.5 µM
same,IC50,lipase [2],32.3 µM
same,IC50,lipase [3],18.2 µM
